Among the data in BindingDB's records for patent US20250313563 (The Broad Institute, 2025) are IC50 values, retold here.

Test [1] deals with Glycogen synthase kinase-3 beta (Homo sapiens, UniProt P49841). Put plainly: TR-FRET Assay. The gist of the method:
(§1)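 Compound was preincubated 30 min in assay buffer before the kinase reaction, which was quenched with EDTA. Phosphorylation was detected by TR-FRET after adding a solution of 40 nM streptavidin-d2 and 2 nM Tb-labelled anti-pSer641 antibody.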

Test [2] has as its target Glycogen synthase kinase-3 alpha (Homo sapiens, UniProt P49840). The test is described as follows: TR-FRET Assay. In outline: as §1
A general note: In TR-FRET formats the signal depends on donor and acceptor labels being close together.

Each structure is given as a SMILES string. Where “and” joins values, the source holds several entries; their conditions need not be identical. Identical values can stand only once.

Sequence of Glycogen synthase kinase-3 beta (P49841 whole entry): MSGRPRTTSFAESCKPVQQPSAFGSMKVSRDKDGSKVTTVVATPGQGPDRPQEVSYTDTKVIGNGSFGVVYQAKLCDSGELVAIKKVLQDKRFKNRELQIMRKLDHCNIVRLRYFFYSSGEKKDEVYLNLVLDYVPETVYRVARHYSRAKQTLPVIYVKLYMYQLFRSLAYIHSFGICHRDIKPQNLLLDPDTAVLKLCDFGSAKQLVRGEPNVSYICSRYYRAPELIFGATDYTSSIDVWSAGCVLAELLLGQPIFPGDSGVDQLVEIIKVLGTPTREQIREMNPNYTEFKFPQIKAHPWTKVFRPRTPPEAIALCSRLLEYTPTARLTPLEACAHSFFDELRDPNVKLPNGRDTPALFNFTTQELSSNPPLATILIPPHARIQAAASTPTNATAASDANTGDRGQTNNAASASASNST
Sequence of Glycogen synthase kinase-3 alpha (P49840 whole entry): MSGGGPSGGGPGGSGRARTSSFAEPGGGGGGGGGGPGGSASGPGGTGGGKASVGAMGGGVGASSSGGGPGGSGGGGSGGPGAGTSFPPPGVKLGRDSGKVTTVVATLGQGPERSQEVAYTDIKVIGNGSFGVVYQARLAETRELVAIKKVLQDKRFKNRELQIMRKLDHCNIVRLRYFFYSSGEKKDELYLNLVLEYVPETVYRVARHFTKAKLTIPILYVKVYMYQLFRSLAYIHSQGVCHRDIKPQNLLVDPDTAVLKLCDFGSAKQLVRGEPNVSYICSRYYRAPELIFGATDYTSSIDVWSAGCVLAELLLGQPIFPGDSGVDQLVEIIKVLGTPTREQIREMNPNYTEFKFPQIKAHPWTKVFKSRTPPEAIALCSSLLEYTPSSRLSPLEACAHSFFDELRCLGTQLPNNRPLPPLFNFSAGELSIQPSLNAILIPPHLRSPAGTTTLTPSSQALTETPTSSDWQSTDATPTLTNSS

On to `CC[C@@]1(c2cccc(-c3ccncc3C(F)(F)F)c2)C2=C(N=NC2)NC2=C1C(=O)C(C)(C)C2` [US20250313563, Compound 952757], for which the IC50 in test [1] is above 5000 nM; in test [2], 1000 to 5000 nM.

As for `CC[C@@]1(c2cccc(-c3ccnc4cc(F)cnc34)c2)C2=CN=NC2NC2=C1C(=O)NC(C)(C)C2` (stereo partly specified) [US20250313563, Compound 952758], the IC50 was 100 to 1000 nM in test [1] and below 100 nM in test [2].

Regarding `CC[C@]1(c2cccc(-c3ccncc3C(F)(F)F)c2)C2=C(N=NC2)NC2=C1C(=O)C(C)(C)C2` [US20250313563, Compound 952759], the IC50 in test [1] is < 100 nM and 1000 to 5000 nM; in test [2] it was < 100 nM and 100 to 1000 nM.

As to `CC[C@@]1(c2cccc(-c3c(C)cnc4c(C)cccc34)c2)C2=CN=NC2NC2=C1C(=O)NC(C)(C)C2` (stereo partly specified) [US20250313563, Compound 952760], the 50% inhibitory concentration (IC50) in test [1] and in test [2] was above 5000 nM each time.

Consider `CC[C@@]1(c2cccc(C3=C4CC=CC(C)=C4N=CC3)c2)C2=CN=NC2NC2=C1C(=O)NC(C)(C)C2` (stereo partly specified) [US20250313563, Compound 952909], for which the IC50 in test [1] was 100 to 1000 nM; in test [2] it was below 100 nM.

Consider `CC[C@@]1(c2cccc(-c3ccnc4ccncc34)c2)C2=CN=NC2NC2=C1C(=O)NC(C)(C)C2` (stereo partly specified) [US20250313563, Compound 952910], for which the half-maximal inhibitory concentration (IC50) in test [1] is 100 to 1000 nM and > 5000 nM; in test [2], < 100 nM and 100 to 1000 nM.

For `CC[C@@]1(c2cccc(-c3cnn(-c4ccncc4)c3)c2)C2=CN=NC2NC2=C1C(=O)NC(C)(C)C2` (stereo partly specified) [US20250313563, Compound 952912], the IC50 in test [1] was above 5000 nM; in test [2], 100 to 1000 nM.

For `CC[C@@]1(c2cccc(-c3ccnc4c3cnn4C)c2)C2=CN=NC2NC2=C1C(=O)NC(C)(C)C2` (stereo partly specified) [US20250313563, Compound 952913], the IC50 was 100 to 1000 nM in test [1] and below 100 nM in test [2].

Take `CC[C@]1(c2ccccc2)C2=CN=NC2NC2=C1C(=O)CC(C)(C)[C@@H]2F` (stereo partly specified) [US20250313563, Compound 957196]: the IC50 in test [1] and in test [2] was above 5000 nM throughout.

On to `CC[C@]1(c2ccccc2)C2=CN=NC2NC2=C1C(=O)CC(C)(C)[C@H]2F` (stereo partly specified) [US20250313563, Compound 957197], for which the IC50 in test [1] was 1000 to 5000 nM and > 5000 nM; in test [2], 100 to 1000 nM and > 5000 nM.

With `CC[C@@]1(c2ccccc2)C2=CN=NC2NC2=C1C(=O)CC(C)(C)[C@@H]2F` (stereo partly specified) [US20250313563, Compound 957199], the IC50 in test [1] and in test [2] was above 5000 nM in each case.

As to `CC[C@@]1(c2ccccc2)C2=CN=NC2NC2=C1C(=O)CC(C)(C)[C@H]2F` (stereo partly specified) [US20250313563, Compound 957200], the IC50 in test [1] was 100 to 1000 nM and > 5000 nM; in test [2] it was 100 to 1000 nM and > 5000 nM.

Turning to `CC[C@@]1(c2ccccc2)C2=CN=NC2NC2=C1C(=O)[C@@H](F)C(C)(C)C2` (stereo partly specified) [US20250313563, Compound 957403], the values for the IC50 in test [1] and in test [2] were 1000 to 5000 nM and 100 to 1000 nM, respectively.

As to `CC[C@@]1(c2ccccc2)C2=CN=NC2NC2=C1C(=O)[C@H](F)C(C)(C)C2` (stereo partly specified) [US20250313563, Compound 957404], the IC50 in test [1] and in test [2] was above 5000 nM throughout.

For the compound `CC[C@]1(c2ccccc2)C2=CN=NC2NC2=C1C(=O)[C@@H](F)C(C)(C)C2` (stereo partly specified) [US20250313563, Compound 957405], the IC50 in test [1] lay within 1000 to 5000 nM; in test [2] it was 100 to 1000 nM.

For the compound `CC[C@]1(c2ccccc2)C2=CN=NC2NC2=C1C(=O)[C@H](F)C(C)(C)C2` (stereo partly specified) [US20250313563, Compound 957406], the 50% inhibitory concentration (IC50) in test [1] and in test [2] was above 5000 nM throughout.

For `CC[C@@]1(c2cccc(C(F)(F)F)c2)C2=C(CC(C)(C)NC2=O)NC2N=NC(F)=C21` (stereo partly specified) [US20250313563, Compound 957497], the IC50 in test [1] and in test [2] was above 5000 nM in each case.

As to `CC[C@]1(c2cccc(-c3cnn(C)c3)c2)C2=CN=NC2NC2=C1C(=O)CC(C)(C)[C@@H]2F` (stereo partly specified) [US20250313563, Compound 957504], the IC50 in test [1] lay in the range of 1000 to 5000 nM; in test [2] it was 100 to 1000 nM.

As to `CC[C@]1(c2cccc(-c3cnn(C)c3)c2)C2=CN=NC2NC2=C1C(=O)CC(C)(C)[C@H]2F` (stereo partly specified) [US20250313563, Compound 957505], the IC50 is 1000 to 5000 nM and > 5000 nM in test [1]; < 100 nM and 1000 to 5000 nM in test [2].

For the compound `CC[C@]1(c2cccc(-c3ccnn3C)c2)C2=CN=NC2NC2=C1C(=O)CC(C)(C)[C@@H]2F` (stereo partly specified) [US20250313563, Compound 957506], the 50% inhibitory concentration (IC50) in test [1] is 100 to 1000 nM and > 5000 nM; in test [2], < 100 nM and 100 to 1000 nM.

`CC[C@]1(c2cccc(-c3ccnn3C)c2)C2=CN=NC2NC2=C1C(=O)CC(C)(C)[C@H]2F` (stereo partly specified) [US20250313563, Compound 957507]: the half-maximal inhibitory concentration (IC50) in test [1] was < 100 nM and 1000 to 5000 nM; in test [2] it was below 100 nM.

On to `CC[C@@]1(c2cccc(-c3ccnn3C)c2)C2=CN=NC2NC2=C1C(=O)CC(C)(C)[C@H]2F` (stereo partly specified) [US20250313563, Compound 957508], for which the IC50 in test [1] and in test [2] was above 5000 nM throughout.

Take `CC[C@@]1(c2cccc(-c3cnn(C)c3)c2)C2=CN=NC2NC2=C1C(=O)CC(C)(C)[C@@H]2F` (stereo partly specified) [US20250313563, Compound 957511]: the IC50 in test [1] was 100 to 1000 nM and > 5000 nM; in test [2] it was < 100 nM and 100 to 1000 nM.

Take `CC[C@]1(c2cccc(C(F)(F)F)c2)C2=C(CC(C)(C)NC2=O)NC2N=NC(F)=C21` (stereo partly specified) [US20250313563, Compound 957518]: the results for the IC50 in test [1] and in test [2] were 100 to 1000 nM and below 100 nM, respectively.

With `CC[C@]1(c2cccc(-c3ccncc3)c2)C2=CN=NC2NC2=C1C(=O)CC(C)(C)[C@@H]2F` (stereo partly specified) [US20250313563, Compound 959341], the IC50 in test [1] lay in the range of 100 to 1000 nM; in test [2], 1000 to 5000 nM.

On to `CC[C@@]1(c2cccc(-c3ccncc3)c2)C2=CN=NC2NC2=C1C(=O)CC(C)(C)[C@H]2F` (stereo partly specified) [US20250313563, Compound 959343], for which the IC50 in test [1] is < 100 nM and 1000 to 5000 nM; in test [2], < 100 nM and 100 to 1000 nM.

Turning to `CC[C@@]1(c2cccc(-c3ccncc3)c2)C2=CN=NC2NC2=C1C(=O)CC(C)(C)[C@@H]2F` (stereo partly specified) [US20250313563, Compound 959344], the IC50 in test [1] and in test [2] was above 5000 nM throughout.

On to `CCC1(c2cccc(-c3cncn3C(C)C)c2)C2=CN=NC2NC2=C1C(=O)CC(C)(C)C2F` (stereo unspecified) [US20250313563, Compound 963155], for which the half-maximal inhibitory concentration (IC50) in test [1] and in test [2] was below 100 nM in each case.

In general, IC50 refers to the concentration at which inhibition is half-maximal.
